Assays:
Assay type in all cases: cell-based
[1] = tested on: U2OS (human osteosarcoma); experiment: SRB Cell Cytotoxicity Assay; details: treated for 72h, read-out: Concentration of test compounds at which the cell growth is inhibited by 50 % U2OS
Text: (§1) SRB Cell Cytotoxicity Assay is an assay based upon the quantitative staining of cellular proteins by sulforhodamine B (SRB). This assay can be used for high-throughput drug screening (Vichai & Kirkitara, Nature Protocol. 2006, 1, 112). Sulforhodamine B is an anionic aminoxanthene dye that forms an electrostatic complex with the basic amino acid residues of proteins under moderately acid conditions, which provides a sensitive linear response.
(§2) To assess a putative antiproliferative activity of the selected compounds, HT1080 (human fibrosarcoma), U87MG (human glioblastoma astrocytoma) and U2OS (human osteosarcoma) cell lines were treated for 72h, in triplicate, with increasing concentrations of heparanase inhibitors. Inhibition of cell proliferation was then measured by the classical colorimetric SRB Cell Cytotoxicity assay. Absorbance was measured by spectrophotometer at a wavelength of 510 nm and cell proliferation was determined as percent with respect to control cells (cells treated with the vehicle alone). EC50 values were then determined by GraphPad Prism.

[2] = tested on: U87MG (human glioblastoma astrocytoma); experiment: SRB Cell Cytotoxicity Assay; details: U-87 MG, treated for 72h, read-out: Concentration of test compounds at which the cell growth is inhibited by 50 % U87MG
Text: as §1, §2

[3] = tested on: HT1080 (human fibrosarcoma); experiment: SRB Cell Cytotoxicity Assay; details: HT-1080, HT1080, treated for 72h, read-out: Concentration of test compounds at which the cell growth is inhibited by 50 % HT1080
Text: as §1, §2

[4] = tested on: HT1080 (human fibrosarcoma); experiment: Cell adhesion assay on matrigel coated wells; details: HT1080, Conc. 10 µM; percent of adhesion with respect to the control (100%)
Procedure: Cell surface, non-integrin molecules such as heparan sulfate proteoglycans (HSPGs) may be involved in the regulation of early adhesive stages of cell-ECM interactions. A cell adhesion assay has been employed to determine if the newly designed heparanase inhibitors were able to interfere with adhesion properties of cancer cells.
HT1080 (human fibrosarcoma) cells were treated for 18-20 h with test compounds in complete medium supplemented with 10% FCS. Then cells were collected, washed in complete medium, and added to matrigel coated wells in triplicate, at previously identified optimal seeding density, and incubated at 37 °C in complete medium for times ranging from 15 minutes to 4h, according to the cell line. After incubation, the wells were washed three times with serum-free medium and the remaining firmly attached cells were stained with crystal-violet 0.1%. Optical density was measured at 560 nm by Victor 3 (Perkin-Elmer) plate analyzer. Each experiment was repeated three times.

## COc1cc(N=Nc2cc(S(=O)(=O)O)cc3cc(S(=O)(=O)O)cc(O)c23)c(C)cc1NC(=O)Nc1cc(C)c(N=Nc2cc(S(=O)(=O)O)cc3cc(S(=O)(=O)O)cc(O)c23)cc1OC [SST0597]
[1]
  EC50: > 10 µM
[2]
  EC50: > 10 µM
[3]
  EC50: > 10 µM
[4]
  Adhesion Assay (%) HT1080: ∼ 85%

Source: patent EP3381906A1, “COMPOUNDS FOR USE AS HEPARANASE INHIBITORS” (Leadiant Biosciences SA, priority 2017, dated 2018)
